Three compounds from ChEMBL document CHEMBL5365481, “Design, Synthesis, and Activity Evaluation of Novel Dual-Target Inhibitors with Antifungal and Immunoregulatory Properties” (J Med Chem, 2023) can be followed below.

Values after ≈ are worked out from the molar mass of the structure shown. Active and inactive are the calls of the source. No cut-off for these calls is given here. Bounds are passed on as bounds.

Data set [1] concerns Candida albicans. The experiment in a line: Antifungal activity against fluconazole-resistant Candida albicans CaR assessed as inhibition of fungal growth incubated for 72 hrs by CLSI based liquid medium microdilution method. The data set is classed as functional.
In data set [2] the target is Programmed cell death protein 1/Programmed cell death 1 ligand 1 (Homo sapiens, UniProt Q9NZQ7). The experiment in a line: Inhibition of PD-1/PD-L1 interaction (unknown origin) incubated for 15 mins by ELISA. The data set is classed as protein-complex assay. For orientation: In an ELISA, binding on a coated surface is turned into a signal by an enzyme label.
Sequence of Programmed cell death protein 1/Programmed cell death 1 ligand 1 (Q15116 whole entry): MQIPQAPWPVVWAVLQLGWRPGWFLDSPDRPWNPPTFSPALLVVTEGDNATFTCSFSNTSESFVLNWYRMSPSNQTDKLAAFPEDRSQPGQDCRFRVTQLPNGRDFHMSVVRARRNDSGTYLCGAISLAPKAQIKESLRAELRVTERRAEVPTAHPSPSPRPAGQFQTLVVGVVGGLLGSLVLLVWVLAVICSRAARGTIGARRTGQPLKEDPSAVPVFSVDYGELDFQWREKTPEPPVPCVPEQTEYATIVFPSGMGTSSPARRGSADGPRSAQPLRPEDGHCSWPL
Sequence of Programmed cell death protein 1/Programmed cell death 1 ligand 1 (Q9NZQ7 whole entry): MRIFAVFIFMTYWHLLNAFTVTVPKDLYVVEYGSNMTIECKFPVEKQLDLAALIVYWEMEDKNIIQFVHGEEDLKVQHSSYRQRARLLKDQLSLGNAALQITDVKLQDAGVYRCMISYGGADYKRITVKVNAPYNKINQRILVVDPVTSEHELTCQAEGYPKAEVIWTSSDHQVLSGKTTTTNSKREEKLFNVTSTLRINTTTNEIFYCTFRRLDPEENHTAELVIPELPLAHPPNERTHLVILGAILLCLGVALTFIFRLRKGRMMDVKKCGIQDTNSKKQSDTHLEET
The target of data set [3] is Programmed cell death 1 ligand 1 (Homo sapiens, UniProt Q9NZQ7). Kind of data set: Binding affinity to PD-L1 (unknown origin) assessed as dissociation constant by SPR analysis.
Sequence of Programmed cell death 1 ligand 1 (Q9NZQ7 whole entry): as above
Data set [4] concerns the target Lanosterol 14-alpha demethylase (Candida albicans (strain SC5314 / ATCC MYA-2876) (Yeast), UniProt P10613). The experiment in a line: Inhibition of Candida albicans ATCC SC5314 CYP51 assessed as other unknown sterol content at 4 ug/ml measured after 16 hrs by GC-MS analysis (Rvb= 3.82%). The conditions noted are these: at 4 µg/mL. Details: scale not given: the % may be the effect or the level left.

For data set [5], the system named is Candida albicans. The experiment in a line: Antifungal activity against Candida albicans ATCC SC5314 assessed as decrease in fungal cell density at 1 microM/ml incubated for 48 hrs by absorbance based assay. The data set is classed as functional, organism-based.
Data set [6] deals with Candida albicans. The experiment in a line: Induction of mitochondrial membrane depolarization in Candida albicans ATCC SC5314 assessed as polarized cells at 1 microM/ml incubated for 24 hrs by JC-1 staining based flow cytometry assay (reference value: 0.28 +/- 0.02%). In kind it is functional. (In flow cytometry, cells or beads pass a laser one at a time.)
In data set [7] the test system is Candida albicans. Kind of data set: Induction of mitochondrial membrane depolarization in Candida albicans ATCC SC5314 assessed as depolarized cells at 1 microM/ml incubated for 24 hrs by JC-1 staining based flow cytometry assay (reference value: 0.3 to 5.1%). The data set is classed as functional.
Data set [8] concerns Candida albicans. The experiment in a line: Induction of apoptosis in Candida albicans ATCC SC5314 assessed as increase in blue fluorescence intensity at 1 microM/ml incubated for 48 hrs by Hoechst 33258/PI staining based fluorescence microscopy. In kind it is functional, organism-based.
In data set [9] the test system is Candida albicans. Kind of data set: In vivo antifungal activity against Candida albicans ATCC SC5314 infected in BALB/c mouse assessed as disappearance of nuclei aggregation at 10 ug, ip for 14 days by GMS staining based microscopy. The data set is classed as functional, organism-based. To be noted: dose 10.0 µg, time 14.0 day.
Data set [10] deals with Candida albicans. Kind of data set: In vivo antifungal activity against Candida albicans ATCC SC5314 infected in BALB/c mouse assessed as reversal of cell morphology to normal state at 10 ug, ip for 14 days by GMS staining based microscopy. The data set is classed as functional, organism-based. The conditions noted are these: dose 10.0 µg, time 14.0 day.
Data set [11] concerns Candida albicans. The experiment in a line: In vivo antifungal activity against Candida albicans ATCC SC5314 infected in BALB/c mouse assessed as decrease in necrotic cell debris in tissue gap at 10 ug, ip for 14 days by GMS staining based microscopy. The data set is classed as functional, organism-based. The conditions noted are these: dose 10.0 µg, time 14.0 day.
Data set [12] is described as follows: Toxicity in BALB/c mouse infected with Candida albicans ATCC SC5314 assessed as morphological changes in liver at 10 ug, ip for 14 days by H and E staining based microscopy. The conditions noted are these: in vivo, 336 h, dose 10 µg, time 14 day. The data set is classed as organism-based.
Data set [13] is described as follows: Toxicity in BALB/c mouse infected with Candida albicans ATCC SC5314 assessed as plasma ALT level at 10 ug, ip for 14 days. The conditions noted are these: in vivo, 336 h, dose 10 µg, time 14 day. In kind it is organism-based.
The test system of data set [14] is Candida albicans. The experiment in a line: In vivo antifungal activity against Candida albicans ATCC SC5314 infected in BALB/c mouse assessed as decrease in NLRP3 expression level at 10 ug, ip for 14 days by Western blot analysis. The data set is classed as functional, organism-based. The conditions noted are these: dose 10.0 µg, time 14.0 day.
The test system of data set [15] is Candida albicans. The experiment in a line: In vivo antifungal activity against Candida albicans ATCC SC5314 infected in BALB/c mouse assessed as decrease in COX2 expression level at 10 ug, ip for 14 days by immunohistochemical analysis. The data set is classed as functional, organism-based. The conditions noted are these: dose 10.0 µg, time 14.0 day.
In data set [16] the test system is Candida albicans. Kind of data set: In vivo antifungal activity against Candida albicans ATCC SC5314 infected in BALB/c mouse assessed as decrease in PD-L1 expression level at 10 ug, ip for 14 days by Western blot analysis. The data set is classed as functional, organism-based. The conditions noted are these: dose 10.0 µg, time 14.0 day. A general note: In western blotting, separated proteins are transferred to a membrane and probed.

The test system of data set [17] is Candida albicans. Kind of data set: In vivo antifungal activity against Candida albicans ATCC SC5314 infected in BALB/c mouse assessed as decrease in PD-L1 expression level at 10 ug, ip for 14 days by immunohistochemical analysis. In kind it is functional, organism-based. The conditions noted are these: dose 10.0 µg, time 14.0 day.
The test system of data set [18] is Candida albicans. The experiment in a line: In vivo antifungal activity against Candida albicans ATCC SC5314 infected in BALB/c mouse assessed as fold increase in CD8+ expression level in T cells at 10 ug, ip for 14 days by immunohistochemical analysis. The data set is classed as functional, T-cell.
Data set [19] relates to Candida albicans. Kind of data set: In vivo antifungal activity against Candida albicans ATCC SC5314 infected in BALB/c mouse assessed as fold increase in CD3+ expression level in T cells at 10 ug, ip for 14 days by immunohistochemical analysis. In kind it is functional, T-cell. To be noted: dose 10 µg, time 14 day.
Data set [20] has as its system Cell membrane. The experiment in a line: Induction of cell membrane integrity disruption in Candida albicans ATCC SC5314 assessed as reduced cytoplasmic density at 1 microM/ml incubated for 48 to 72 hrs by TEM analysis. In kind it is subcellular. The conditions noted are these: time 48-72 hrs.
Data set [21] deals with Cell membrane. Kind of data set: Induction of cell membrane integrity disruption in Candida albicans ATCC SC5314 assessed as edema vacuoles at 1 microM/ml incubated for 48 to 72 hrs by TEM analysis. The data set is classed as subcellular. To be noted: time 48-72 hrs.
The subject of data set [22] is Cell membrane. Kind of data set: Induction of cell membrane integrity disruption in Candida albicans ATCC SC5314 assessed as cell destruction at 1 microM/ml incubated for 96 hrs by TEM analysis. In kind it is subcellular.
The test system of data set [23] is Candida albicans. Kind of data set: In vivo antifungal activity against Candida albicans ATCC SC5314 infected in BALB/c mouse assessed as decrease in number of exogenous fungal cells at 10 ug, ip for 14 days in presence of Biphenyl isopropyl ester by H and E staining based microscopy. To be noted: dose 10.0 µg, time 14.0 day. The data set is classed as functional, organism-based.

Data set [24] deals with Candida albicans. The experiment in a line: In vivo antifungal activity against Candida albicans ATCC SC5314 infected in BALB/c mouse assessed as reversal of cell morphology to normal state at 10 ug, ip for 14 days in presence of Biphenyl isopropyl ester by GMS staining based microscopy. To be noted: dose 10.0 µg, time 14.0 day. The data set is classed as functional, organism-based.

In data set [25] the test system is Candida albicans. Kind of data set: In vivo antifungal activity against Candida albicans ATCC SC5314 infected in BALB/c mouse assessed as decrease in necrotic cell debris in tissue gap at 10 ug, ip for 14 days in presence of Biphenyl isopropyl ester by GMS staining based microscopy. The data set is classed as functional, organism-based. The conditions noted are these: dose 10.0 µg, time 14.0 day.

Data set [26] is described as follows: Toxicity in BALB/c mouse infected with Candida albicans ATCC SC5314 assessed as morphological changes in spleen at 10 ug, ip for 14 days in presence of Biphenyl isopropyl ester by H and E staining based microscopy. In kind it is organism-based. To be noted: in vivo, 336 h, dose 10 µg, time 14 day.
Data set [27] is described as follows: Toxicity in BALB/c mouse infected with Candida albicans ATCC SC5314 assessed as morphological changes in kidney at 10 ug, ip for 14 days in presence of Biphenyl isopropyl ester by H and E staining based microscopy. The data set is classed as organism-based. The conditions noted are these: in vivo, 336 h, dose 10 µg, time 14 day.
A short description of data set [28]: Toxicity in BALB/c mouse infected with Candida albicans ATCC SC5314 assessed as plasma BUN level at 10 ug, ip for 14 days in presence of Biphenyl isopropyl ester. The data set is classed as organism-based. The conditions noted are these: in vivo, 336 h, dose 10 µg, time 14 day.
The test system of data set [29] is Candida albicans. The experiment in a line: In vivo antifungal activity against Candida albicans ATCC SC5314 infected in BALB/c mouse assessed as decrease in COX2 expression level at 10 ug, ip for 14 days in presence of Biphenyl isopropyl ester by Western blot analysis. In kind it is functional, organism-based. The conditions noted are these: dose 10.0 µg, time 14.0 day.

The subject of data set [30] is Candida albicans. The experiment in a line: In vivo antifungal activity against Candida albicans ATCC SC5314 infected in BALB/c mouse assessed as decrease in PD-L1 expression level at 10 ug, ip for 14 days in presence of Biphenyl isopropyl ester by Western blot analysis. In kind it is functional, organism-based. The conditions noted are these: dose 10.0 µg, time 14.0 day.

Sequence of Lanosterol 14-alpha demethylase (P10613 whole entry): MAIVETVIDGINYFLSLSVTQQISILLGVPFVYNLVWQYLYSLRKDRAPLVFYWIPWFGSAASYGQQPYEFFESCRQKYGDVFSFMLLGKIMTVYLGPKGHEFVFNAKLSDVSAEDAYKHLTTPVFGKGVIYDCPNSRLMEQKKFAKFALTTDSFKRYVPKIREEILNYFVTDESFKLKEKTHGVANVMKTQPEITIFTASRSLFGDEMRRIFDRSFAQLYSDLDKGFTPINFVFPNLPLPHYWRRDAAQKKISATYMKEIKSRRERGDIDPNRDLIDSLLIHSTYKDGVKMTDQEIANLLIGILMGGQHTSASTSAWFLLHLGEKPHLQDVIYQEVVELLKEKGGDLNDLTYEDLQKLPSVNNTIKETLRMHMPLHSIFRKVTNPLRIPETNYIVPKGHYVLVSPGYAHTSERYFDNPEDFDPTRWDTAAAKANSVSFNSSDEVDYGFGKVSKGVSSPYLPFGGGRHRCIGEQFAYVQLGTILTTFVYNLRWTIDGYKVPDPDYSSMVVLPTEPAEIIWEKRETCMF

`CC(C)c1ccc(C(=O)N2CCC(NC(=O)c3nc(-n4ccnc4)c4ccccc4n3)CC2)cc1`: the MIC50 in the data set with Candida albicans [1] came out at 4 µg/mL (≈ 8.54 µM). Further, in data set [2], the 50% inhibitory concentration (IC50) was determined as 39 nM. For the same compound, in data set [3], the equilibrium dissociation constant (Kd) was 60.7 nM. The Activity in [4] is 5.58%; with Candida albicans [6], 0.1%; in the data set with Candida albicans [7], 0.1%; in data set [12], “Non-Toxic”; in data set [13], 30.5 IU/L. The outcome in the data set with Candida albicans [5], in the data set on Candida albicans [8], in the data set with Candida albicans [9], in the data set with Candida albicans [10], in the data set on Candida albicans [11] and with Candida albicans [14] was Active. In addition, the result with Candida albicans [15], with Candida albicans [16] and with Candida albicans [17] was Active. Moreover, the “fold change (FC)” value in the data set on Candida albicans [18] (dose 10 µg, time 14 day) was found to be 1.46; in the data set with Candida albicans [19], 1.46.
For the compound `CC(=O)c1ccc(C(=O)N2CCC(NC(=O)c3nc(-n4cncn4)c4ccccc4n3)CC2)cc1`, the MIC50 in the data set on Candida albicans [1] came out at 2 µg/mL (≈ 4.26 µM). The compound also registered a concentration for half-maximal inhibition (IC50) in [2] of 17 nM. In data set [3], the Kd was 65.5 nM. Besides, the Activity was 5.74% in data set [4]; 0.62% in the data set on Candida albicans [6]; 1.27% in the data set with Candida albicans [7]; “Non-Toxic” in data set [12]; 32.3 IU/L in data set [13]. For the same compound, the result in the data set with Candida albicans [5], in the data set on Candida albicans [8], in the data set on Cell membrane [20], in the data set with Cell membrane [21], in the data set with Cell membrane [22] and with Candida albicans [9] was Active. For the same compound, the outcome with Candida albicans [10], in the data set on Candida albicans [11], with Candida albicans [14], in the data set on Candida albicans [15], in the data set with Candida albicans [16] and in the data set with Candida albicans [17] was Active. The result in the data set on Candida albicans [18] (T-cell, dose 10.0 µg, time 14.0 day) was Active. Moreover, the “fold change (FC)” value in the data set with Candida albicans [19] amounted to 1.46.
With `OC(Cn1cncn1)(Cn1cncn1)c1ccc(F)cc1F` [FLUCONAZOLE], in the data set with Candida albicans [1], the MIC50 was over 8 µg/mL. Moreover, the Activity was 5.58% in data set [4]; 0.39% in the data set on Candida albicans [6]; 0.28% with Candida albicans [7]; “Non-Toxic” in [12]; “Non-Toxic” in data set [26]; “Non-Toxic” in [27]. Besides, the results for the Activity in data set [13] and in [28] were 41.9 IU/L and 22.8 nmol/L, respectively. In addition, the outcome in the data set with Candida albicans [5], in the data set with Candida albicans [8], with Candida albicans [23], in the data set on Candida albicans [9], with Candida albicans [10] and in the data set on Candida albicans [11] was Active. Further, the outcome in the data set on Candida albicans [24], in the data set on Candida albicans [25], in the data set on Candida albicans [14], in the data set with Candida albicans [29], with Candida albicans [15] and in the data set on Candida albicans [16] was Active. Also, in the data set with Candida albicans [30], the outcome was Active.

What is called MIC50 is the lowest concentration that inhibits either 50% of growth or 50% of the strains tested, depending on the study. In general, IC50 refers to the midpoint of a concentration-inhibition curve. What is called Kd is the concentration at which binding is half-saturated.
